Data on 104 compounds can be found in PubChem BioAssay AID1996.

Structures are written as SMILES. ≈ marks a conversion by molar mass, not a printed value.

The conditions of the data set: buffer; pH 7.4; 200.0 µM.
Regarding `COc1ccc(C(=O)Cn2cnc3ccccc3c2=O)cc1`, the kinetic solubility (commonly solubility judged after dilution from a stock solution rather than from solid) came to 31 µg/mL (≈ 105 µM).

Compound `S=c1[nH]c2cc3ccccc3cc2[nH]1` displayed a kinetic solubility of 27.9 µg/mL (≈ 139 µM). As for `Cc1cnc(NC(=O)Cc2cccs2)s1`, the solubility (kinetic) is more than 35.7 µg/mL. The compound `COc1ccccc1N(Cc1ccccc1)S(=O)(=O)c1cccc(C(=O)N2CCCCC2)c1` returned a solubility (kinetic) of 11.3 µg/mL (≈ 24.3 µM). On to `CCOc1ccc(-c2noc(-c3cccnc3)n2)cc1OCC`, for which the kinetic solubility was 2.2 µg/mL (≈ 7.07 µM).

As to `CCN1CSC(=S)N(Cc2ccccc2)C1`, the kinetic solubility was determined as 37.5 µg/mL (≈ 149 µM).

`Cc1cnc(C(=O)OCC(=O)N(CC(C)C)C2CCS(=O)(=O)C2)cn1` (centres undefined) yielded a kinetic solubility of more than 55.4 µg/mL.

In turn, `O=C(NC1=NCCS1)C1CCCCC1` returned a solubility (kinetic) of more than 31.8 µg/mL. Compound `CCCNC(=O)c1cnc(-c2ccccc2)nc1-c1ccccc1` returned a kinetic solubility of 1 µg/mL (≈ 3.15 µM).

`CN(C(=S)NC(=O)C12CC3CC(CC(C3)C1)C2)c1ccc(O)cc1` had a kinetic solubility of 45.8 µg/mL (≈ 133 µM). As for `CCc1ccc(C(=O)NC(CCSC)C(=O)OC)cc1` (centres undefined), the kinetic solubility was more than 44.3 µg/mL.

`CN(c1ccccc1)S(=O)(=O)c1ccc(Cl)c(C(=O)NCc2ccco2)c1` gave a kinetic solubility of 47.2 µg/mL (≈ 117 µM). For `CCOC(=O)C1(Cc2ccccc2)CCCN(Cc2ccncc2)C1` (centres undefined) the value was 31.3 µg/mL (≈ 92.5 µM); for `N=C1c2ccccc2CN1c1cccc([N+](=O)[O-])c1`, more than 38 µg/mL; for `CCC1Oc2ccccc2N(CC(=O)NC2CCCCC2)C1=O` (centres undefined), 43.9 µg/mL (≈ 139 µM). `Cc1nc2oc3ccccc3c(=O)c2cc1C(=O)O` displayed a kinetic solubility of more than 38.3 µg/mL. For `CCOc1ccccc1NC(=O)Nc1ccc2c(c1)OCO2` the value was 2.8 µg/mL (≈ 9.32 µM); for `CC(C)CCN1CCC(N)=NC1=O`, 26.8 µg/mL (≈ 146 µM).

With `O=C(c1cc([N+](=O)[O-])[nH]n1)N1CCSCC1`, the solubility (kinetic) is more than 36.3 µg/mL.

In turn, `COc1cccc(CNC(=S)Nc2ccc(Cl)cc2C)c1` came in with a solubility (kinetic) of 5.5 µg/mL (≈ 17.1 µM).

The compound `CC(=O)c1c[nH]c(C(=O)NCc2ccccc2Cl)c1` displayed a kinetic solubility of 3.5 µg/mL (≈ 12.6 µM).

On to `CCCCc1ccc(NC(=O)Nc2cccnc2)cc1`, for which the kinetic solubility was found to be 4 µg/mL (≈ 14.9 µM).

Regarding `O=C(CCNC(=O)c1ccc([N+](=O)[O-])cc1)Oc1ccc(F)c(F)c1`, the solubility (kinetic) was more than 52.5 µg/mL. Take `Cc1noc(C)c1C(=O)NCc1ccccc1F`: the kinetic solubility was 34.7 µg/mL (≈ 140 µM). For `CCCCOc1ncnc2c1[nH]c1ccc(C)cc12` the value was 0.6 µg/mL (≈ 2.35 µM).

Compound `CN1CCN(S(=O)(=O)Cc2ccccc2Cl)CC1` registered a kinetic solubility of more than 43.3 µg/mL. The compound `O=C(Cc1ccccc1)NCC(=O)Nc1cccc(Cl)c1` returned a solubility (kinetic) of 10 µg/mL (≈ 33 µM). `Cc1cnc([N+](=O)[O-])n1CCOC(=O)NC(=O)c1c(F)cccc1F` returned a kinetic solubility of more than 53.1 µg/mL.

In turn, `O=C(Nc1ccccc1)c1ccccc1OCc1ccc(F)cc1` returned a solubility (kinetic) of less than 0.7 µg/mL. `CCOc1ccc(C(=O)NCC(c2ccco2)N2CCOCC2)cc1` (centres undefined) gave a kinetic solubility of more than 51.7 µg/mL. For `CCc1ccccc1NC(=O)C1CCCC1` the value was 29.7 µg/mL (≈ 137 µM); for `Cc1ccc(/C=C2/SC(=O)NC2=S)o1`, 31.1 µg/mL (≈ 138 µM). With `c1ccc(-c2nc3c4ccccc4ccn3c2CN2CCCCC2)cc1`, the kinetic solubility was found to be 8.1 µg/mL (≈ 23.7 µM). The compound `O=C(CN1c2cccc3cccc(c23)S1(=O)=O)Nc1c(F)c(F)c(F)c(F)c1F` yielded a kinetic solubility of 1.3 µg/mL (≈ 3.03 µM).

For `O=C(NOCc1ccccc1)c1ccc(Cl)cc1`, the solubility (kinetic) stood at 11.3 µg/mL (≈ 43.2 µM). `O=C(Nc1ccc2oc(-c3ccncc3)nc2c1)c1ccccc1`: the solubility (kinetic) is less than 0.2 µg/mL.

`Cc1ccc2cc(NC(=O)c3ccccc3)ccc2n1` came in with a kinetic solubility of more than 39.3 µg/mL. In the case of `CCCCC(CC)COCCCN=Cc1c(O)[nH]c(=S)[nH]c1=O` (centres undefined) it was 4.1 µg/mL (≈ 12 µM). For `O=C(Nc1ccc(S(=O)(=O)N2CCCC2)cc1)C1CCCCC1` the value was 13.7 µg/mL (≈ 40.7 µM); for `O=C(Nc1cccc2ccccc12)c1cccc([N+](=O)[O-])c1`, 1.4 µg/mL (≈ 4.79 µM); for `COC(=O)c1cc(C(=O)Nc2nc3ccccc3[nH]2)cc([N+](=O)[O-])c1`, 1.1 µg/mL (≈ 3.23 µM). The compound `COc1cccc(-c2noc(CCC(=O)NCCc3ccccc3)n2)c1` returned a kinetic solubility of 44.3 µg/mL (≈ 126 µM).

With `COc1cc(N2CCOCC2)ccc1C=C(C#N)C#N`, the kinetic solubility turned out to be 0.7 µg/mL (≈ 2.6 µM). In the case of `CCCc1nc2oc3c(=O)[nH]cnc3c2c2c1COC(C)(C)C2`, the kinetic solubility is more than 47 µg/mL.

The compound `CCCCN(C)C(=O)c1ccc2c(c1)S(=O)(=O)c1ccccc1C2=O` gave a solubility (kinetic) of more than 53.6 µg/mL. Turning to `O=[N+]([O-])c1ccccc1S(=O)(=O)Nc1ccc(S(=O)(=O)N2CCCC2)cc1`, the kinetic solubility is more than 61.7 µg/mL. In the case of `CC(C)N(C(=O)Cn1c(=O)oc2ccccc21)c1ccccc1`, the solubility (kinetic) is 0.7 µg/mL (≈ 2.26 µM). Take `N#C/C(=C\c1ccc(F)cc1)C(=O)NC1CCS(=O)(=O)C1` (centres undefined): the solubility (kinetic) was determined as 33.8 µg/mL (≈ 110 µM). In turn, `Cc1[nH]c(=O)[nH]c(=O)c1S(=O)(=O)Nc1ccc(S(N)(=O)=O)cc1` gave a solubility (kinetic) of 48.8 µg/mL (≈ 135 µM). As to `CNc1ccccc1NC(=O)CCn1c(=S)oc2ccccc21`, the kinetic solubility is 5.6 µg/mL (≈ 17.1 µM). Turning to `CCc1cc(C(=O)c2ccc(OC)cc2)c(N)s1`, the solubility (kinetic) came to 20.9 µg/mL (≈ 80 µM). For `CN(CCOc1ccccc1)CC(=O)Nc1cccc(C#N)c1`, the solubility (kinetic) stood at 43 µg/mL (≈ 139 µM). As to `COc1ccc(C)c2sc(N(CCN(C)C)C(=O)c3ccc4ccccc4c3)nc12.Cl`, the kinetic solubility worked out at 30.8 µg/mL.

`OCCC1CN(Cc2nc3ccccc3[nH]2)CCN1C1CCCC1` (centres undefined) returned a kinetic solubility of more than 49.3 µg/mL. For `Cc1ccc(C)c(NC(=O)C2CC(=O)N(C3CCCCC3)C2)c1` (centres undefined) the value was 41.5 µg/mL (≈ 132 µM); for `COc1cc(/C=N/NC(=O)c2ccccc2)ccc1O`, more than 40.5 µg/mL. For `Cc1cnc(NC(=O)CCc2ccccc2)s1`, the kinetic solubility came out at 8.7 µg/mL (≈ 35.3 µM). As to `COc1cc(CC(=O)OCC(=O)N2CCCCC2)cc(OC)c1OC`, the solubility (kinetic) turned out to be 46.5 µg/mL (≈ 132 µM). Turning to `COc1cc2c(cc1OC)C(c1cccc(Br)c1)NC(=O)C2` (centres undefined), the kinetic solubility was found to be 43 µg/mL (≈ 119 µM). Compound `Cc1nc(N2CCC(C(N)=O)CC2)c2c(-c3cccs3)csc2n1` came in with a kinetic solubility of more than 53.8 µg/mL. Turning to `C=CCNc1nc(Cl)nc(Nc2ccccc2)n1`, the solubility (kinetic) stood at 2.2 µg/mL (≈ 8.41 µM). For `Cc1ccc(/C=C2\C(=O)NC(=O)N(CC3CCCO3)C2=O)s1` (centres undefined) the value was more than 48.1 µg/mL; for `Cc1sc2nc(C(C)C)nc(SCC(=O)NC3CC3)c2c1C`, 1.5 µg/mL (≈ 4.47 µM); for `O=[N+]([O-])c1ccc(O)c2ncccc12`, more than 28.5 µg/mL.

The compound `O=C(O)c1ccccc1NC(=O)c1ccccc1-c1ccccc1C(=O)O` yielded a kinetic solubility of more than 54.2 µg/mL. As for `CC1CC1C(=O)OCC(=O)NCc1ccccc1` (centres undefined), the kinetic solubility was more than 37.1 µg/mL. For `CCOC(=O)N1CCN(C(=S)NC(=O)/C=C/c2ccc(C)cc2)CC1` the value was 18.1 µg/mL (≈ 50.1 µM); for `COc1cc2c(cc1OC)CN(Cc1ccc(F)cc1)CC2`, 35.7 µg/mL (≈ 118 µM); for `COCCCNC(=O)c1ccc(-c2csc(C)n2)cc1`, more than 43.6 µg/mL. Regarding `COc1ccc(NC(=O)C2CC(c3ccccc3O)=NO2)cc1OC` (centres undefined), the kinetic solubility was 1.5 µg/mL (≈ 4.38 µM). Compound `Cc1nn(CC(=O)NC(C)c2ccccc2)c(C)c1[N+](=O)[O-]` (centres undefined) showed a solubility (kinetic) of more than 45.3 µg/mL. Turning to `CCOC(=O)CNc1cccc(C(F)(F)F)c1`, the solubility (kinetic) was determined as 8 µg/mL (≈ 32.4 µM). As for `Cc1cc(OCC(=O)OCC(=O)Nc2cc(S(=O)(=O)N3CCOCC3)ccc2Cl)ccc1Cl`, the kinetic solubility turned out to be 16.2 µg/mL (≈ 31.3 µM). For `CCc1cccc(NC(=O)CCCCCC2NC(=O)NC2C)c1` (centres undefined) the value was more than 47.6 µg/mL.

In the case of `O=C(NCc1ccccc1)c1ccc[nH+]c1.[Cl-]`, the kinetic solubility was more than 37.3 µg/mL. Take `Cc1cc(C)c(C#N)c(SCc2ccc(C(=O)O)cc2)n1`: the solubility (kinetic) was more than 44.8 µg/mL. The compound `Cc1ccc(CN2C(=O)CSC2c2ccc(F)cc2)cc1` (centres undefined) gave a kinetic solubility of 16.8 µg/mL (≈ 55.7 µM).

`CN1CCN(C(=O)c2ccccc2[N+](=O)[O-])CC1` returned a kinetic solubility of 31.5 µg/mL (≈ 126 µM). Consider `Cc1cc(C(=O)OCC(=O)NC(C)C)c2ccccc2n1`, for which the kinetic solubility was more than 42.9 µg/mL.

On to `CN1CCN(c2ccc(Cl)cc2N)CC1`, for which the solubility (kinetic) was determined as 30.6 µg/mL (≈ 136 µM). Compound `COc1cc(C(=O)COC(=O)c2c(C)noc2C)cc(OC)c1OC` had a solubility (kinetic) of more than 52.4 µg/mL. Compound `Cc1ccc(C(=O)N2CC=C(c3ccccc3)CC2)s1` gave a kinetic solubility of 3.1 µg/mL (≈ 10.9 µM).

The compound `CCN(C(=O)N1CCOCC1)c1ccccc1` yielded a solubility (kinetic) of 34.7 µg/mL (≈ 148 µM). The compound `CN1CCC(CNC(=O)Nc2csc3ccccc23)CC1` showed a solubility (kinetic) of more than 45.5 µg/mL.

Take `COc1ccc(C(C)=O)cc1Cn1c(=O)cc(C)[nH]c1=O`: the kinetic solubility was more than 43.2 µg/mL. Compound `O=C(NC(=S)Nc1cccnc1Cl)c1ccco1` returned a solubility (kinetic) of 32.2 µg/mL (≈ 114 µM). For `CC1CCCCC12NC(=O)N(CC(=O)NCc1ccccc1Cl)C2=O` (centres undefined) the value was more than 54.6 µg/mL; for `Cc1nc(SCC(=O)NC2CCCC2)c2c(C)c(C)sc2n1`, 0.5 µg/mL (≈ 1.49 µM). The compound `O=C(CSc1nc2cc(Cl)ccc2s1)NCC1CCCO1` (centres undefined) returned a solubility (kinetic) of more than 51.4 µg/mL. With `O=[N+]([O-])c1ccc(NC(=S)N2CCCC2)cc1`, the solubility (kinetic) stood at 8.2 µg/mL (≈ 32.6 µM).

The compound `COc1cc(C)ccc1OCC(=O)OCC(=O)c1ccc[nH]1` returned a solubility (kinetic) of more than 45.5 µg/mL. For `Cc1nc2ccccc2c2oc(C(=O)N3CCCC(C)C3)cc12` (centres undefined) the value was 44.6 µg/mL (≈ 145 µM). For `O=C(CN1C(=O)c2ccccc2C1=O)Oc1ccc(Cl)cc1`, the kinetic solubility was 28 µg/mL (≈ 88.7 µM). `COC(=O)c1cccc(NC(=O)c2ccc[n+]([O-])c2)c1`: the kinetic solubility is more than 40.8 µg/mL.

Consider `O=C(Nc1sc2c(c1C(=O)O)CCC2)c1ccccc1F`, for which the kinetic solubility was more than 45.8 µg/mL. For `O=C(NCc1ccccc1)c1c[nH]c2ccc(F)cc2c1=O` the value was 9.1 µg/mL (≈ 30.7 µM). Take `O=C(NC(=S)NC1CCC(O)CC1)c1ccco1` (centres undefined): the solubility (kinetic) was more than 40.2 µg/mL.

In the case of `CN(Cc1ccc(F)cc1Cl)S(=O)(=O)c1cccs1`, the solubility (kinetic) is 6.8 µg/mL (≈ 21.3 µM). In the case of `Cc1cc(OC(C)C(=O)NCC2CCCO2)cc(C)c1Cl` (centres undefined), the solubility (kinetic) was 40.7 µg/mL (≈ 131 µM). In turn, `O=C(C1CC(=O)N(c2ccc(F)cc2)C1)N1CCCCC1` (centres undefined) yielded a kinetic solubility of 39 µg/mL (≈ 134 µM).

`Cc1ccc(C)c(NC(=O)Cn2cnc3c(oc4ccccc43)c2=O)c1` had a solubility (kinetic) of less than 0.2 µg/mL.

For `O=C(O)c1ccc2c(c1)C(=O)N(c1ccc(Nc3ccccc3)cc1)C2=O`, the kinetic solubility amounted to 51.6 µg/mL (≈ 144 µM). For `CCc1ccc(CNC(=O)C(=O)NCC2CCCO2)cc1` (centres undefined) the value was 17.6 µg/mL (≈ 60.6 µM).

`COC(=O)[C@H](CC(C)C)NC(=O)N1CCCCC1C` (some centres undefined) gave a solubility (kinetic) of more than 40.6 µg/mL.
